# In patent US20180015180A1, “SHORT AND D-AMINO ACID-CONTAINING POLYPEPTIDES FOR THERAPEUTIC CONJUGATES AND USES THEREOF” (AngioChem Inc., priority 2010, published 2018):
# Ends that are not written are not given here.
# Columns and labels:
# [1] = test system: pepsin; assay: Stability of oral formulations of Angiopep peptides in the presence of pepsin; assay type: in vitro ADME; conditions: pepsin (isolated enzyme); 1 mg/mL peptide; 1 mg/25 mL pepsin (diluted 41 times, pH=1.4); 37° C.
# Experimental: The stability of oral formulations (1 mg/mL of Angiopep peptide) was determined in the presence of 1 mg/25 mL of pepsin (diluted 41 times, pH=1.4), an enzyme present in gastric fluid, at 37° C. Table 5 provides the half-life (t1/2) for degradation of various Angiopep peptides.
# [2] = test system: BBB; assay: In situ brain perfusion in mice with capillary depletion (transport across the BBB); assay type: in vivo; conditions: for crossing of the BBB (overall conclusion): mouse, in vivo
# Experimental: The initial transport was measured as a function of time.
# [3] = test system: mice; assay: Induction of hypothermia (body temperature) after intravenous bolus; assay type: in vivo; conditions: Table 9 grades
# Chain of pepsin (P0DJD8 63-388): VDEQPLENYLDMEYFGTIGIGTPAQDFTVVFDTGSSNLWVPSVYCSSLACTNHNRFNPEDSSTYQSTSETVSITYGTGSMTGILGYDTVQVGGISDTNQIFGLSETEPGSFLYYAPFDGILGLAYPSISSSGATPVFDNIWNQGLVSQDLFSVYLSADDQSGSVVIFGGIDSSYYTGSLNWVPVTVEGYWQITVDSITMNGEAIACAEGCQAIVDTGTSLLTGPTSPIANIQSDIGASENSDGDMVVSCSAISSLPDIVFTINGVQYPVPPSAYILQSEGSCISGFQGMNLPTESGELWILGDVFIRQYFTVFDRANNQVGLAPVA
Molecule,half-life at 1 mg/mL [1],also measured
C[C@@H](O)[C@H](NC(=O)[C@H](CCCCN)NC(=O)[C@H](Cc1ccccc1)NC(=O)[C@H](CC(N)=O)NC(=O)[C@H](CC(N)=O)NC(=O)[C@H](CCCNC(=N)N)NC(=O)[C@@H](N)CCCCN)C(=O)N[C@@H](CCC(=O)O)C(=O)N[C@@H](CCC(=O)O)C(=O)N[C@@H](Cc1ccc(O)cc1)C(=O)N[C@@H](CS)C(N)=O [Peptide P5],24 min,crossing of the BBB (overall conclusion) [2]: effectively cross the BBB
"C[C@@H](O)[C@H](N)C(=O)N[C@@H](Cc1ccccc1)C(=O)N[C@@H](Cc1ccccc1)C(=O)N[C@@H](Cc1ccc(O)cc1)C(=O)NCC(=O)NCC(=O)N[C@@H](CO)C(=O)N[C@@H](CCCNC(=N)N)C(=O)NCC(=O)N[C@@H](CCCCN)C(=O)N[C@@H](CCCNC(=N)N)C(=O)N[C@@H](CC(N)=O)C(=O)N[C@@H](CC(N)=O)C(=O)N[C@@H](Cc1ccccc1)C(=O)N[C@@H](CCCCN)C(=O)N[C@H](C(=O)N[C@@H](CCC(=O)O)C(=O)N[C@@H](CCC(=O)O)C(=O)N[C@@H](Cc1ccc(O)cc1)C(=O)O)[C@@H](C)O [An2, T F F Y G G S R G K R N N F K T E E Y, reference compound]",40 min,
"TFFYGGSRG K R N N F KTEEY E L Y E N K P R R P Y I L (TFFYGGSRGKRNNFKTEEYELYENKPRRPYIL) [An2-NT, fusion protein]",,Hypothermia [3]: ✓✓✓
C[C@@H](O)[C@H](N)C(=O)N[C@@H](Cc1ccccc1)C(=O)N[C@@H](Cc1ccccc1)C(=O)N[C@@H](Cc1ccc(O)cc1)C(=O)NCC(=O)NCC(=O)N[C@@H](CO)C(=O)N[C@H](CCCNC(=N)N)C(=O)NCC(=O)N[C@H](CCCCN)C(=O)N[C@H](CCCNC(=N)N)C(=O)N[C@@H](CC(N)=O)C(=O)N[C@@H](CC(N)=O)C(=O)N[C@@H](Cc1ccccc1)C(=O)N[C@@H](CCCCN)C(=O)N[C@H](C(=O)N[C@@H](CCC(=O)O)C(=O)N[C@@H](CCC(=O)O)C(=O)N[C@@H](Cc1ccc(O)cc1)C(=O)O)[C@@H](C)O [Peptide 3D-An2],60 min,
"N=C(N)NCCC[C@@H](NC(=O)[C@H](N)CCCCN)C(=O)N[C@@H](CC(N)=O)C(=O)N[C@@H](CC(N)=O)C(=O)N[C@H](Cc1ccccc1)C(=O)N[C@@H](CCCCN)C(=O)N[C@@H](Cc1ccc(O)cc1)C(=O)N[C@@H](CS)C(N)=O [Peptide P6a, D-Lys-D-Arg-Asn-Asn-D-Phe-Lys-Tyr-Cys]",> 1080 min,
"C[C@@H](O)[C@H](NC(=O)[C@H](CCCCN)NC(=O)[C@@H](Cc1ccccc1)NC(=O)[C@H](CC(N)=O)NC(=O)[C@H](CC(N)=O)NC(=O)[C@@H](CCCNC(=N)N)NC(=O)[C@H](N)CCCCN)C(=O)N[C@@H](CCC(=O)O)C(=O)N[C@@H](CCC(=O)O)C(=O)N[C@@H](Cc1ccc(O)cc1)C(=O)N[C@@H](CS)C(N)=O [Peptide P5a, D-Lys-D-Arg-Asn-Asn-D-Phe-Lys-Thr-Glu-Glu-Tyr-Cys]",21 min,
N=C(N)NCCC[C@H](NC(=O)[C@@H](N)CCCCN)C(=O)N[C@@H](CC(N)=O)C(=O)N[C@@H](CC(N)=O)C(=O)N[C@@H](Cc1ccccc1)C(=O)N[C@@H](CCCCN)C(=O)N[C@@H](Cc1ccc(O)cc1)C(=O)N[C@@H](CS)C(N)=O [Peptide P6],> 240 min,
FYGGSRGKRNNFKTEEYC-NH2 [Peptide P1],,crossing of the BBB (overall conclusion) [2]: effectively cross the BBB
CC[C@H](C)[C@H](NC(=O)[C@@H](Cc1ccc(O)cc1)NC(=O)[C@@H]1CCCN1C(=O)[C@H](CCCNC(=N)N)NC(=O)[C@H](CCCNC(=N)N)NC(=O)[C@H](CCCCNC(=O)CCCCCN1C(=O)CC(SC[C@H](NC(=O)[C@H](Cc2ccc(O)cc2)NC(=O)[C@H](CCC(=O)O)NC(=O)[C@H](CCC(=O)O)NC(=O)[C@@H](NC(=O)[C@H](CCCCN)NC(=O)[C@@H](Cc2ccccc2)NC(=O)[C@H](CC(N)=O)NC(=O)[C@H](CC(N)=O)NC(=O)[C@@H](CCCNC(=N)N)NC(=O)[C@H](N)CCCCN)[C@@H](C)O)C(N)=O)C1=O)NC(C)=O)C(=O)N[C@@H](CC(C)C)C(=O)O (stereo partly shown) [Peptide P5a-NT1],,"brain uptake ([2]; in situ brain perfusion in mice, initial transport measured as a function of time): higher than for neurotensin (NT)"
